ChEMBL document CHEMBL3621090, “Discovery of a novel Kv7 channel opener as a treatment for epilepsy” (Bioorg Med Chem Lett, 2015)

What was measured:
Plasma [1] = experiment: Unbound plasma concentration in Sprague-Dawley rat at 30 mg/kg, sc administered at 30 mins by LC-MS/MS analysis; assay type: ADME, organism-based; details: in vivo, 0.5 h
[2] = Toxicity in human THLE cells assessed as ATP depletion; assay type: cell-based
[3] = Activation of rat Kv7.3/7.5 expressed in CHOK1 cells; assay type: cell-based; details: CHO-K1
[4] = biological target: T1, Potassium voltage-gated channel subfamily KQT member 4 (Homo sapiens) (UniProt P56696); experiment: Activation of human Kv7.4 expressed in CHOK1 cells assessed as increase in current amplitude relative to control; assay type: cell-based; details: CHO-K1
T1 sequence (whole entry): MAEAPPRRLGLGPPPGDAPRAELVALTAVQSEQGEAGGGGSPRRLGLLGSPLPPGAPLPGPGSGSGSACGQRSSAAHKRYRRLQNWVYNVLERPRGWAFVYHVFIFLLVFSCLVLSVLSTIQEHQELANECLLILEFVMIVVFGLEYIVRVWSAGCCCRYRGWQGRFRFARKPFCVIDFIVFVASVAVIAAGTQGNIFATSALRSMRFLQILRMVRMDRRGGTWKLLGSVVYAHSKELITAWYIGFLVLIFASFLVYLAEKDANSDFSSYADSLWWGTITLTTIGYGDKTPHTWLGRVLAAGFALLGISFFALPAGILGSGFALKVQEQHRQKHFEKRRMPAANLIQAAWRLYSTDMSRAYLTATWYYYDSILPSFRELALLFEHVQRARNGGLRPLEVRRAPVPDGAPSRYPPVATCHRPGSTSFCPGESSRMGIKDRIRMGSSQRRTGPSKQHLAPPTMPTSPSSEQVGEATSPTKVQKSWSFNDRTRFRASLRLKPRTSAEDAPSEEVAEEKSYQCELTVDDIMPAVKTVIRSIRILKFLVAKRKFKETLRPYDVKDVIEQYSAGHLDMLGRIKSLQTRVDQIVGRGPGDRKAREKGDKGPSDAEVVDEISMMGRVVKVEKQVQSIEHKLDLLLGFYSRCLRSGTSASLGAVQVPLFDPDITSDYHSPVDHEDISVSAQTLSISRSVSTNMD

Rattus norvegicus [5] = experiment: Anticonvulsant activity in Sprague-Dawley rat assessed as protection against maximal electroshock-induced convulsion at 10 mg/kg, sc administered 30 mins prior to application of shock via corneal electrodes relative to control; assay type: functional
Brain [6] = experiment: Fraction unbound in Sprague-Dawley rat brain at 1 mg/kg, sc administered at 30 mins by LC-MS/MS analysis; assay type: ADME, organism-based; details: in vivo, 0.5 h
Brain [7] = experiment: Fraction unbound in Sprague-Dawley rat brain at 30 mg/kg, po administered at 60 mins by LC-MS/MS analysis; assay type: ADME, organism-based; details: in vivo, 1 h
Plasma [8] = experiment: Unbound plasma concentration in Sprague-Dawley rat at 1 mg/kg, sc administered at 30 mins by LC-MS/MS analysis; assay type: ADME, organism-based; details: in vivo, 0.5 h
Rattus norvegicus [9] = experiment: Anticonvulsant activity in sc dosed Sprague-Dawley rat assessed as protection against maximal electroshock-induced convulsion administered 30 mins prior to application of shock via corneal electrodes; assay type: functional, organism-based
Rattus norvegicus [10] = experiment: Anticonvulsant activity in Sprague-Dawley rat assessed as protection against maximal electroshock-induced convulsion at 10 mg/kg, po administered 60 mins prior to application of shock via corneal electrodes relative to control; assay type: functional
[11] = Ratio of free drug level in plasma to brain in Sprague-Dawley rat at 10 mg/kg, sc administration at 30 mins; assay type: ADME, organism-based; details: in vivo, 0.5 h
Brain [12] = experiment: Fraction unbound in Sprague-Dawley rat brain at 1 mg/kg, po administered at 60 mins by LC-MS/MS analysis; assay type: ADME, organism-based; details: in vivo, 1 h
[13] = biological target: Voltage-gated potassium channel KCNQ3/KCNQ5 (Homo sapiens, UniProt O43525+Q9NR82); experiment: Activation of human Kv7.3/7.5 expressed in CHOK1 cells; assay type: cell-based, CHO-K1
[14] = Ratio of free drug level in plasma to brain in Sprague-Dawley rat at 10 mg/kg, po administration at 60 mins; assay type: ADME, organism-based; details: in vivo, 1 h
[15] = Permeability in dog RRCK cells after 2 hrs by transwell assay; assay type: ADME, cell-based, Canis lupus familiaris, MDCKII-LE; details: mdck, read-out: permeability
Rattus norvegicus [16] = experiment: Anticonvulsant activity in Sprague-Dawley rat assessed as protection against maximal electroshock-induced convulsion at 30 mg/kg, po administered 60 mins prior to application of shock via corneal electrodes relative to control; assay type: functional
[17] = biological target: T2, Potassium voltage-gated channel subfamily KQT member 4 (Rattus norvegicus, UniProt Q9JK96); experiment: Activation of rat Kv7.4 expressed in CHOK1 cells; assay type: cell-based, CHO-K1
T2 sequence (Q9JK96 whole entry): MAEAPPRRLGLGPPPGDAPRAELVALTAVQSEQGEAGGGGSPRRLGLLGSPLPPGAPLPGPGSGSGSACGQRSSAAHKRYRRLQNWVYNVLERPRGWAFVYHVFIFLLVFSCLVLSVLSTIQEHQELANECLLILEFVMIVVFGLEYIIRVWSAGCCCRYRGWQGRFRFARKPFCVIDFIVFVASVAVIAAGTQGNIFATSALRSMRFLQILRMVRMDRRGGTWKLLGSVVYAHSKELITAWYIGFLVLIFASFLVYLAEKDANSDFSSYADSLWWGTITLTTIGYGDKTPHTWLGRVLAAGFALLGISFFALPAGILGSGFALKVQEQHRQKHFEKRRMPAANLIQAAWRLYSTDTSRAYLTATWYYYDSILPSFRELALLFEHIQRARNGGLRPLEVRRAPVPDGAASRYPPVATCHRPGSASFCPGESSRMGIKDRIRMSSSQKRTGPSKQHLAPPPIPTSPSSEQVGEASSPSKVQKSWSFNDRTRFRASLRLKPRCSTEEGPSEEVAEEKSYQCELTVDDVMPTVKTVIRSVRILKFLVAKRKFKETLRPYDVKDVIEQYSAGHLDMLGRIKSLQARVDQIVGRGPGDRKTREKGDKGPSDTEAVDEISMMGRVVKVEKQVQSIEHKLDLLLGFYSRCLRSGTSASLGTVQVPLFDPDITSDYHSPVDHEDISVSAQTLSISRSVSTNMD

[18] = Ratio of free drug level in plasma to brain in Sprague-Dawley rat at 3 mg/kg, sc administration at 30 mins; assay type: ADME, organism-based; details: in vivo, 0.5 h
[19] = Ratio of free drug level in plasma to brain in Sprague-Dawley rat at 30 mg/kg, sc administration at 30 mins; assay type: ADME, organism-based; details: in vivo, 0.5 h
[20] = biological target: T3, Potassium voltage-gated channel subfamily KQT member 4 (Homo sapiens, UniProt P56696); experiment: Activation of human Kv7.4 expressed in CHOK1 cells; assay type: cell-based, CHO-K1
T3 sequence (P56696 whole entry): T1 sequence (whole entry)

Rattus norvegicus [21] = experiment: Anticonvulsant activity in po dosed Sprague-Dawley rat assessed as protection against maximal electroshock-induced convulsion administered 60 mins prior to application of shock via corneal electrodes; assay type: functional, organism-based
CHO-K1 = experiment: Activation of rat Kv7.3/7.5 expressed in CHOK1 cells assessed as increase in current amplitude relative to control; assay type: cell-based
Plasma [22] = experiment: Unbound plasma concentration in Sprague-Dawley rat at 10 mg/kg, sc administered at 30 mins by LC-MS/MS analysis; assay type: ADME, organism-based; details: in vivo, 0.5 h
Rattus norvegicus [23] = experiment: Anticonvulsant activity in Sprague-Dawley rat assessed as protection against maximal electroshock-induced convulsion at 1 mg/kg, sc administered 30 mins prior to application of shock via corneal electrodes relative to control; assay type: functional
[24] = Intrinsic clearance in human liver microsomes measured over 1 hr in presence of NADPH regenerating system; assay type: ADME; details: read-out: CLH

Sequence of Voltage-gated potassium channel KCNQ3/KCNQ5 (O43525 whole entry): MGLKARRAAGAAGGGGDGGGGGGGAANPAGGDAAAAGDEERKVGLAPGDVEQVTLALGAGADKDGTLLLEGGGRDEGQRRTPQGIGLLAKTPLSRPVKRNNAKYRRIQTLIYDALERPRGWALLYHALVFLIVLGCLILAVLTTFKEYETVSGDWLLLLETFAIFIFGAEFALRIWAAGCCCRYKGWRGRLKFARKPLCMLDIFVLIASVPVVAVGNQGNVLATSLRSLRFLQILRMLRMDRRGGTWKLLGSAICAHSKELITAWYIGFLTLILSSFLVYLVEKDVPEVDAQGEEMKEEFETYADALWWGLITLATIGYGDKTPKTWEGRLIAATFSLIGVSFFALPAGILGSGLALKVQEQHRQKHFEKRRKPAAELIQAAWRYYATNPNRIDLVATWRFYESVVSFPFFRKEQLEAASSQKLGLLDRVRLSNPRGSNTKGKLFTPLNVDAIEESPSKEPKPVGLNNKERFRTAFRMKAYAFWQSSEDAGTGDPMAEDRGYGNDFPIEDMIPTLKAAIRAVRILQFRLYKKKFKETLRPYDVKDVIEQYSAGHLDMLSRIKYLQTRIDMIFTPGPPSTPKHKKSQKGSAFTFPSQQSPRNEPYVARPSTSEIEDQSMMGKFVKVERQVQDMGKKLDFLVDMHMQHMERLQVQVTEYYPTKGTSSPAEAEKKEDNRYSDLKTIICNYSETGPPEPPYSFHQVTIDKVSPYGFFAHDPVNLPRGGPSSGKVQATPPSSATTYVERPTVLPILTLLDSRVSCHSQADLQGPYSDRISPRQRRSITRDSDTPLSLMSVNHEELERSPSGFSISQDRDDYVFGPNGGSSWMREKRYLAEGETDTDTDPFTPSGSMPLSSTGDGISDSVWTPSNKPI
Sequence of Voltage-gated potassium channel KCNQ3/KCNQ5 (Q9NR82 whole entry): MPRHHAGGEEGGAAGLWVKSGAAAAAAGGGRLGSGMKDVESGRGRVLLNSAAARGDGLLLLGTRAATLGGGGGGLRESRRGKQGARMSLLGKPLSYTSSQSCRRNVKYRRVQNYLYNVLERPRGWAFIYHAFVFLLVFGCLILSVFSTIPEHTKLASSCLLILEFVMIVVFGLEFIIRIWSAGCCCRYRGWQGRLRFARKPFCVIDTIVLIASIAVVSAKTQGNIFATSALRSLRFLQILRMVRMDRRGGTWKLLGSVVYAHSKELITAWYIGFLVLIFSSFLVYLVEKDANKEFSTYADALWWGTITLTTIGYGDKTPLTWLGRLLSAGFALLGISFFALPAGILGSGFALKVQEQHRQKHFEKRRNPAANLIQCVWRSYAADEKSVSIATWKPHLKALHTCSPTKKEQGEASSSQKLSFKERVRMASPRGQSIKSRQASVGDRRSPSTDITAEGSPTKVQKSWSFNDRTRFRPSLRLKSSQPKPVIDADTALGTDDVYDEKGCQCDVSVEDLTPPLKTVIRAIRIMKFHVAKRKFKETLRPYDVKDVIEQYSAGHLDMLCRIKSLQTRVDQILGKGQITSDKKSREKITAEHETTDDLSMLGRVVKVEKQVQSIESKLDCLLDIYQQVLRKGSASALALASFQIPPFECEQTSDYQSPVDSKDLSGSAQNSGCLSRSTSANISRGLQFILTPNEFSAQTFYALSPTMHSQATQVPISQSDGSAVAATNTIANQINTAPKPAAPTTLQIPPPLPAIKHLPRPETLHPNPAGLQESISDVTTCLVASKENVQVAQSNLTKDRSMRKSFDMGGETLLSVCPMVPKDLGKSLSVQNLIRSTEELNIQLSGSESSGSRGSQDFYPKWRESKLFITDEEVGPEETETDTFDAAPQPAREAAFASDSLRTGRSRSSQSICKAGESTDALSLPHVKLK

COc1nc(N2CCC(OC)CC2)nc(OC)c1NC(=O)CC(C)(C)C
Cp(f) (Plasma [1]): 305 nM
IC50 [2]: > 300000 nM
EC50 [3]: 1330 nM
Activity [4]: 163%
Activity (Rattus norvegicus [5]): 100%
Drug uptake(free) (Brain [6]): 33 nM
Drug uptake(free) (Brain [7]): 274 nM
Cp(f) (Plasma [8]): 58 nM
Activity (Rattus norvegicus [9]): Dose-dependent effect
Activity (Rattus norvegicus [10]): 100%
Ratio [11]: 0.59
Drug uptake(free) (Brain [12]): 6 nM
EC50 [13]: 588 nM
Ratio [14]: 0.37
Papp at 2 h [15]: 24.9 ×10⁻⁶ cm/s
Activity (Rattus norvegicus [16]): 100%
EC50 [17]: 376 nM
Ratio [18]: 0.59
Ratio [19]: 0.55
EC50 [20]: 625 nM
Activity (Rattus norvegicus [21]): Dose-dependent effect
Activity (CHO-K1): 207%
Cp(f) (Plasma [22]): 211 nM
Activity (Rattus norvegicus [23]): 43%
CLint scaled [24]: 15.6 mL/min/kg
